Blank lines part the entries; values can stand above or below the compound they belong to. Ends that are not written are not given here. Peptide text beside a SMILES is read from it. Alexa Fluor 680 C2‑maleimide = near-infrared dye maleimide, coupled by thioether to the C-terminal Cys; DyLight 680 = DyLight 680 fluorophore
How the values were obtained:
rh-clusterin = target: T1, rh-clusterin (Homo sapiens, UniProt P10909); assay: STD-NMR binding of synthetic peptides to rh-clusterin; conditions: ~1:30 protein:peptide, 298K
T1 construct: made in house; host or cells: HEK-293 cells
Protocol: To confirm direct binding of the peptides of Example 1 to clusterin, the interaction of the synthetic peptides of Example 2 with clusterin was tested using Nuclear Magnetic Resonance Saturation Transfer Difference (STD-NMR; Mayer & Meyer, 2001)
NMR samples were prepared by dissolving 0.15 mM of peptides in 50 mM sodium phosphate buffer, 0.2 mM EDTA, pH 6.5. rh-clusterin (˜1 mg/ml) in 5 mM sodium phosphate buffer, 0.02 mM EDTA, pH 7.4, was added to ˜1:30 protein:peptide ratio.
All NMR experiments were performed at 298K on a Bruker Avance800™ NMR spectrometer equipped with a 5 mm triple-resonance probe with three-axis gradients. Saturation transfer difference (STD) spectra was recorded using WATERGATE version of STD pulse sequence (35) with a 3 s selective saturation pulse applied in the relaxation delay and a 20 ms spinlock pulse with a field strength of 12.25 kHz. The saturation pulse was implemented using a pulse train of 49 ms Gaussian-shaped selective pulse and 1 ms interpulse delay. Each Gaussian-shaped pulse had 1000 points with a 1% truncation and was applied with a field strength of 75.9 Hz. STD spectra were recorded with a spectral width of 16025.64 Hz and 32 K data points. Time domain signals were accumulated with 1024 and 4096 scans for the free and complexed sample, respectively. NMR data were processed using Bruker Xwinnmr 2.6. An exponential weighting function of 7 Hz was applied prior to Fourier transformation and polynomial baseline correction.
NMR signals of peptide P3378 and rh-clusterin were severely overlapped, making it impossible to apply the above saturation pulse exclusively on rh-clusterin resonances without disturbing those of the peptide. In order to identify the binding interactions in the P3378-rh-clusterin complex, a new experimental scheme was implemented by applying the on-resonance saturation pulse at methyl resonances (0.912 ppm) and the off-resonance irradiation at −7.799 ppm (referenced H2O to 4.700 ppm). […]

[1] = target: T2, rhCLU (recombinant human clusterin) (Homo sapiens, UniProt P10909); assay: SPR biosensor analysis, rhCLU flowed over immobilized peptide; type: binding; conditions: for sequence dependence of the interaction with clusterin: concluded from scrambled peptides; for koff / kon: 25° C.; for binding of rhCLU to immobilized randomized peptide (Scatchard plot): randomized sequence control peptides
T2 construct: made in house; host or cells: HEK-293 cells
Description: Peptides were immobilized on research-grade CM5 sensor chips by a maleimide coupling method. CM5 sensor chips (research grade) and EDC were purchased from Biosensor AB (Uppsala, Sweden). This thiol coupling generates a stable thioether bond between reactive maleimide groups on the sensor chip surface and the thiol groups of the peptides. A heterobifunctional reagent, SMCC-hydrazide (4-[N-maleimidomethyl]cyclohexane-1 carboxylhydrazide; 99.5% pure; purchased from Molecular Biosciences Inc. (Boulder, Colo.)), was used to introduce reactive maleimido groups to the sensor surface. Immobilization was performed at 25° C. at a flow rate of 5 μL/min. A continuous flow of the HBS-EP buffer (20 mM HEPES, 150 mM NaCl, 3.4 mM EDTA and 0.05% Tween™-20 at pH 7.4) was maintained over the sensor surface. The carboxylated dextran matrix on the sensor surface was activated by an injection of 50 μL of a freshly mixed solution containing 172 μL of 1.2 mM […] (EDC) in 100 mM MES buffer at pH 5.00, and 28 μL of 17.8 mM SMCC-hydrazide in 40% DMF. The ratio of the SMCC:EDC was 2.5:1. Peptide-coupled surfaces were generated by injecting peptides (30-100 μg/ml) in 100 mM MES buffer (at pH 5.0). The amount of peptide immobilized on the activated surface was controlled by altering the contact time with the peptide solution and was between approximately 400 and 500 RU, or 400-500 pg peptide/mm^2. The immobilization procedure was completed by a 50 μL injection of 50 mM cysteine in 1 M sodium chloride and 0.1M sodium acetate (pH 4) to quench excess active maleimide groups.
Protein-peptide interactions were followed using a BIAcore 3000 instrument (Biosensor AB, Uppsala, Sweden). All binding experiments were carried out at 25° C. under a continuous flow of the HBS-EP buffer (20 mM HEPES, 150 mM NaCl, 3.4 mM EDTA and 0.05% Tween-200) at pH 7.4 over the sensor surface at a flow rate of 20 μL/min. Different concentrations of rh-clusterin in the HBS-EP buffer were injected over the peptide-derivatized sensor chips. Dissociation was monitored for up to 300 s post-injection. The surfaces were fully regenerated by 15 s injection of an HBS-EP buffer solution containing 5 mM NaOH. […] Reference responses from control flow cells, containing unmodified dextran surfaces, were subtracted from peptide-containing flow cells, for each analyte injection using the BiaEvaluation software version 3.0 (Biacore AB, Uppsala, Sweden).
The resulting sensorgrams were used for kinetic rate determination through global fitting of the experimental data to a simple 1:1 Langmuir binding model. […] Affinity data (KD) from the binding studies were obtained by plotting the response in RU at the steady state, Req, versus the concentration of clusterin, C, and by fitting these curves to a one-site binding model, Req=C*xRmax/(C+KD) where Rmax is the value in RU at saturation and Req is the observed optical change in RU at each given C.

[2] = target: T3, extracellular domain of the Type II TGF-beta receptor (Homo sapiens, UniProt P37173); assay: SPR specificity test with Type II TGF-beta receptor extracellular domain; type: binding; conditions: receptor 38 nM to 4.5 μM over immobilized peptide
T3 construct: the extracellular domain of the Type II TGF-beta receptor
Protocol: (§1) The specificity of the clusterin-peptide interactions was investigated using SPR biosensor analysis and proteins unrelated to clusterin. Immobilization of the peptides and other proteins on the sensor chips and the SPR experiments were conducted as described in Example 4.
FIG. 8 presents SPR biosensor sensorgrams showing the interaction of the extracellular domain of the Type II TGF-beta receptor (38 nM to 4.5 μM) with immobilized P3378 (500 RUs) (FIG. 8A) or P3375 (1200 RUs) (FIG. 8B).

[3] = target: T4, epidermal growth factor ectodomain (EGFR-ED) (Homo sapiens, UniProt P00533); assay: SPR specificity test with EGFR ectodomain; type: binding; conditions: EGFR-ED 70 nM to 5.63 μM over immobilized peptide
T4 construct: the epidermal growth factor ectodomain (EGFR-ED)
Protocol: as §1

4T1 tumor [4] = assay: In vivo blocking experiment with excess unlabeled peptide; parameters: species or system mouse
Protocol: To further validate the specificity of the in vivo targeting ability of the P3378-DL680 probe, a blocking experiment using an excess of unlabeled P3378 peptide was carried out. Mice received 25 nmoles of P3378-DL680 alone (n=1) or in combination with 5 μmoles unlabeled P3378 or P3378R peptide (both n=2) in 100 μL sterile saline. Animals in the control groups received 25 nmoles of P3378-DL680 with or without 5 μmoles of the unlabeled scrambled P3378R peptide, whereas the experimental animals were injected with 25 nmoles of P3378-DL680 in combination with 5 μmoles of unlabeled P3378 peptide. […] Furthermore, using the gated NIRF lifetime and the OptiView 3D reconstruction module we selected in each mouse the slice along the Z-axis that contained the highest concentration of P3378-DL680 and determined its relative concentration.

[5] = tested on: 4T1 tumor and organs (liver, spleen, pancreas, kidney, heart, lungs); assay: Confocal microscopy of probe distribution in 4T1 tumor and organs; type: in vivo, mouse
Protocol: Confocal microscopy was used to evaluate the distribution of the P3378-DL680 probe in the 4T1 tumor and various organs (liver, spleen, pancreas, kidney, heart, lungs), harvested 15 min post-injection. […] DAPI staining of the nuclei was used to visualize tissue morphology.

4T1 tumor [6] = tested on: 4T1 tumor
Protocol: As a model system, 4T1 mouse mammary carcinoma cell line cells were used to generate tumors in syngeneic BALB/c mice. […] Six to eight weeks old female BALB/c mice were obtained from Charles River. […] A 50 μl 1:1 solution of sterile Matrigel and saline, or the same solution containing 4T1 mouse mammary tumor cells (5×10^6 cells), was injected subcutaneously into the right hind thigh of the animal. Clippers and Nair were used to remove hair from the injection site as well as the lower back and the left thigh of the animals prior to the Matrigel and tumor cell injections. When tumors measured ˜0.5 to 0.8 cm in diameter (6-8 days), the tumor-bearing mice were subjected to in vivo imaging.
Animals were imaged using the following procedures. Animals were anesthetized using isoflurane (3% in O2 at 2 L/min). Prior to the injection of the labeled peptides, animals were subjected to a full body scan to obtain a background fluorescence image. P3378-Alexa680 or P3378R-Alexa680 was administered (25 nmol in 100 μL sterile saline) via the tail vein using a 0.5-ml insulin syringe with a 27-gauge fixed needle. Immediately after, the animal was placed on the heated animals plate (39° C.) of the ART eXplore Optix MX2 imaging system (Advanced Research Technologies, Montreal, Canada). Laser power and counting time per pixel were optimized at 9.6 μW and 0.5 s, respectively. These values remained constant during the entire experiment. The raster scan interval was set at 1.5 mm and was held constant during the acquisition of each image. The data were recorded as Temporal Point-Spread Functions (TPSF), and fluorescence intensity and fluorescence lifetime maps were generated. All images were analyzed using the ART Optix OptiView™ software. Volume data and 3D images were reconstructed using the ART OptiView™ 3D Reconstruction Software Module. All animals were euthanized after the imaging experiments.
Animals were imaged in the ART Optix MX2 small animal imager using three approaches: • a. Mice were injected intravenously (i.v.) via the tail vein with either 5 nanomoles of P3378 peptide labeled with Alexa680, or P3378R peptide labeled with Alexa680; • b. Mice were injected intravenously (i.v.) via the tail vein with either 25 nanomoles of P3378 peptide labeled with Alexa680, or P3378R peptide labeled with Alexa680; • c.

[7] = global fit, one-to-one Langmuir binding model

T2 sequence (P10909 23-227 limits assumed): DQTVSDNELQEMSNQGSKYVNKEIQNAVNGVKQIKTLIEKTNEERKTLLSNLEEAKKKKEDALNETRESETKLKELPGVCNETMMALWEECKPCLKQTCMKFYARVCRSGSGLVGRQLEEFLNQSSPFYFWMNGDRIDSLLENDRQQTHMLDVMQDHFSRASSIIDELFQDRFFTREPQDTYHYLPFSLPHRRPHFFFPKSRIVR
T2 sequence (P10909 228-449 limits assumed): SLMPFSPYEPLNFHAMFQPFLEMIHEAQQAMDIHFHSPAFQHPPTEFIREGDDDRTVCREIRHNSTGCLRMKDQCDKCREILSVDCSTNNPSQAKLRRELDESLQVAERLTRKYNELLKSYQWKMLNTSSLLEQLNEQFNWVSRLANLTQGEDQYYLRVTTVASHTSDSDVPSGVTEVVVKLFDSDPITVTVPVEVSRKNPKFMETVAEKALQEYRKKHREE
T1 sequence (P10909 23-227 limits assumed): as the sequence (P10909 23-227 limits assumed) above
T1 sequence (P10909 228-449 limits assumed): as the sequence (P10909 228-449 limits assumed) above
T3 sequence (P37173 23-166 limits assumed): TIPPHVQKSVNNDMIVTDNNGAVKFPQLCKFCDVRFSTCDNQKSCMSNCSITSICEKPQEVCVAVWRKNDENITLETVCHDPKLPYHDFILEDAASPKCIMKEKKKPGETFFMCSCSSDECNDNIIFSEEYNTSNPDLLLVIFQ
T4 sequence (P00533 25-645 limits assumed): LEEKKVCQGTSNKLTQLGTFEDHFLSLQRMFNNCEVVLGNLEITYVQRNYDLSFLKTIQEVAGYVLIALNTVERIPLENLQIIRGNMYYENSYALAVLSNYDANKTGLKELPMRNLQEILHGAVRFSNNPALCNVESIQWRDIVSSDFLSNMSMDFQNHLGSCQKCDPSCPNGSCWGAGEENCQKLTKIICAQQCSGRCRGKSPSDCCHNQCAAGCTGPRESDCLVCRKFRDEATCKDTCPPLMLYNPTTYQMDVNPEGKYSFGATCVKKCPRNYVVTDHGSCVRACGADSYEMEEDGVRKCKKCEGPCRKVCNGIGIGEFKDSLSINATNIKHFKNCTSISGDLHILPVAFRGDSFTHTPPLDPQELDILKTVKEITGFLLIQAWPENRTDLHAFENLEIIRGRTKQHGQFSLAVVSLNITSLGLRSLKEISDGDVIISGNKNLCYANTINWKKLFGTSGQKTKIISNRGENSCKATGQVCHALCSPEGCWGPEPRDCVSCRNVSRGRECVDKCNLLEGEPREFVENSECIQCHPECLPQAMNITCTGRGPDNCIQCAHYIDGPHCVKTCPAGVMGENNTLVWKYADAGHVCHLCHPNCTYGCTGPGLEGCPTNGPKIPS

Compound: CC(C)C[C@H](NC(=O)[C@@H]1CCCN1C(=O)[C@@H](N)Cc1c[nH]cn1)C(=O)N[C@@H](CO)C(=O)N[C@@H](CCCCN)C(=O)N[C@@H](Cc1c[nH]cn1)C(=O)N1CCC[C@H]1C(=O)N[C@@H](Cc1ccc(O)cc1)C(=O)N[C@@H](Cc1c[nH]c2ccccc12)C(=O)N[C@@H](CO)C(=O)N[C@@H](CCC(N)=O)C(=O)N1CCC[C@H]1C(=O)N[C@@H](CO)C(=O)NCC(=O)N[C@@H](CO)C(=O)NCC(=O)N[C@@H](CS)C(=O)O [P3378]
binding to clusterin by STD-NMR (rh-clusterin): direct interaction
sequence dependence of the interaction with clusterin [1]: sequence dependent
koff [1, 7]: 0.0052 ± 0.0002 s⁻¹
kon [1, 7]: 17200 M⁻¹ s⁻¹
Kd ([1]; global fit, one-to-one Langmuir binding model, read-out: Kd (global kinetic fit)): 0.3 µM
interaction with Type II TGF-beta receptor [2]: no significant signal was observed
binding to EGFR-ED [3]: do not bind specifically
blocking of uptake of P3378-DL680 into the tumor by unlabeled peptide (4T1 tumor [4]; 5 μmoles unlabeled peptide with 25 nmoles P3378-DL680, 15 min post-injection): successfully blocked uptake
detection in the other organs ([5]; 25 nmoles P3378-DL680, 15 min post-injection, liver, spleen, pancreas, kidney, heart, lungs): could not be detected
AUT/AUN ratio as a function of time: behaviour after the initial accumulation (4T1 tumor [6]; co-injection of P3378-Dylight680 and P3378R-Dylight800, 25 nanomoles each i.v.): remains at the tumor site
residence at the tumor site (4T1 tumor [6]; co-injection of P3378-Dylight680 and P3378R-Dylight800, 25 nanomoles each i.v., 6 animals): resided much longer at the tumor site
time post-injection up to which both peptides accumulate at the tumor site at the same rate (4T1 tumor [6]; co-injection, AUT/AUN ratio): ~60 min

Compound: AWHTLASTSLAPSGSGC (Randomized control for P3376) [P3376R, randomized version of P3376, reference compound]
binding of rhCLU to immobilized randomized peptide (Scatchard plot) [1]: bound

Compound: LSLYHTNTQFWQSGSGC (Randomized control for P3375) [P3375R, randomized version of P3375, reference compound]
binding of rhCLU to immobilized randomized peptide (Scatchard plot) [1]: bound

Compound: P3378-Alexa680: P3378 peptide labeled with Alexa Fluor 680 C2-maleimide (HPLSKHPYWSQPSGSGC(Alexa Fluor 680 C2‑maleimide))
accumulation in the tumor (as well as kidney and bladder) (4T1 tumor [6]; 5 or 25 nanomoles i.v., Alexa680 label): accumulation

Compound: CC(C)C[C@H](NC(=O)[C@H](Cc1ccc(O)cc1)NC(=O)[C@@H]1CCCN1)C(=O)N[C@@H](Cc1c[nH]cn1)C(=O)N[C@@H](CCC(N)=O)C(=O)N[C@@H](CO)C(=O)N1CCC[C@H]1C(=O)N[C@@H](Cc1c[nH]cn1)C(=O)N[C@@H](Cc1c[nH]c2ccccc12)C(=O)N[C@@H](CCCCN)C(=O)N1CCC[C@H]1C(=O)N[C@@H](CO)C(=O)N[C@@H](CO)C(=O)NCC(=O)N[C@@H](CO)C(=O)NCC(=O)N[C@@H](CS)C(=O)O [P3378R, PYLHQSPHWKPSSGSGC, reference compound] (H-PYLHQSPHWKPSSGSGC-OH)
accumulation in the kidneys (4T1 tumor [6]; mouse, in vivo): faster accumulation

Compound: P3378-DL680: P3378 peptide labeled with Dylight680 fluorophor (HPLSKHPYWSQPSGSGC(DyLight 680))
relative concentration of the probe at the tumor site (4T1 tumor [4]; in the presence of excess scrambled P3378R peptide vs probe alone): only slightly affected
relative concentration of the probe at the tumor site, times lower (4T1 tumor [4]; in the presence of excess unlabeled P3378 peptide vs probe alone): 3-4 times
uptake of the fluorescent probe in the 4T1 tumor ([5]; 25 nmoles, 15 min post-injection, frozen sections): specific uptake and accumulation

Next, values leading:

binding to clusterin by STD-NMR (rh-clusterin): confirmed
sequence dependence of the interaction with clusterin [1]: not peptide sequence specific
koff [1, 7]: 0.006 ± 0.0002 s⁻¹
kon [1, 7]: 11200 M⁻¹ s⁻¹
interaction with Type II TGF-beta receptor [2]: no significant signal was observed
binding to EGFR-ED [3]: do not bind specifically
Compound: CC(C)C[C@H](NC(=O)[C@H](CCC(N)=O)NC(=O)[C@H](CO)NC(=O)[C@H](Cc1c[nH]c2ccccc12)NC(=O)[C@H](Cc1ccc(O)cc1)NC(=O)[C@@H](NC(=O)[C@@H](N)CC(N)=O)[C@@H](C)O)C(=O)N[C@@H](CC(C)C)C(=O)N[C@@H](Cc1c[nH]cn1)C(=O)N[C@@H](Cc1ccccc1)C(=O)N[C@@H](CCC(N)=O)C(=O)N[C@H](C(=O)N[C@@H](CO)C(=O)NCC(=O)N[C@@H](CO)C(=O)NCC(=O)N[C@@H](CS)C(=O)O)[C@@H](C)O [P3375]

binding to clusterin by STD-NMR (rh-clusterin): confirmed
sequence dependence of the interaction with clusterin [1]: not peptide sequence specific
Compound: CC(C)C[C@H](NC(=O)[C@@H]1CCCN1C(=O)[C@H](CC(C)C)NC(=O)[C@H](C)NC(=O)[C@H](Cc1c[nH]cn1)NC(=O)[C@@H](N)CO)C(=O)N[C@H](C(=O)N[C@@H](Cc1c[nH]c2ccccc12)C(=O)N[C@@H](CO)C(=O)N[C@H](C(=O)N[C@@H](C)C(=O)N[C@@H](C)C(=O)N[C@@H](CO)C(=O)NCC(=O)N[C@@H](CO)C(=O)NCC(=O)N[C@@H](CS)C(=O)O)[C@@H](C)O)[C@@H](C)O [P3376, SHALPLTWSTAA]
